Laboratory results from patent publication EP0072027A1, “Antiviral compounds” (THE WELLCOME FOUNDATION LIMITED, priority 1981, dated 1983).
Marks after values point to notes of the source that are not given here.

Legend:
[1] = tested on: Equine rhinopneumonitis virus (EHV-1); assay: In vivo activity against equine rhinopneumonitis virus in hamsters (Example 14), intraperitoneal and oral; set-up: species or system Syrian weanling hamsters
Experimental: Male cream Syrian weanling hamsters, 40-50 g, 21-24 days old, were caged in groups of 5 and given water and food ad lib.
Equine rhinopneumonitis virus (EHV-1), hamster adapted Vaccine Strain 'Pneumabort' was used; the vaccine was diluted 10^-1 in tissue culture fluid and this stock stored in 1 ml aliquots in sealed glass vials at -70°C. On Day 0 hamsters to be infected received 0.2 ml stock vaccine virus, diluted further 2 x 10^-1 in phosphate buffered saline, subcutaneously in the left flank.
9-/(2-Hydroxy-l-hydroxymethylethoxy)methyl/guanine (hereinafter referred to as 759U) and acyclovir were made up as aqueous solutions in sterile distilled water in the concentrations specified below.
Intraperitoneal administration: from Day 0 to Day 4, inclusive, hamsters received 759U or acyclovir in divided twice daily doses in aqueous solution, the concentration of 759U varying as following, namely 5 mg/ml to give a dose rate of 100 or 50 mg/kg/day, 1.2 mg/ml for 20 mg/kg/day, […] for 4 mg/kg/day and 0.036 mg/ml for 2 mg/kg/day. Untreated control hamsters received an equivalent volume of sterile distilled water.
A stock solution of 759U was made in sterile distilled water at 0.304 mg/ml and then diluted in 3-fold steps to 0.101 and 0.034 mg/ml. Hamsters were given medicated drinking water for 5 days commencing 5 hours pre-infection. A control group was supplied with unmedicated water.
Acyclovir was dissolved in sterile distilled water at 2 mg/ml with the addition of a little sodium hydroxide and warming to 42°C to facilitate solution. Hamsters were given medicated drinking water, containing acyclovir at 2 mg/ml, for 5 days commencing 5 hours pre-infection. […] A control group supplied with unmedicated water was set up.

Herpes simplex type 1 = assay: In vitro plaque reduction in VERO cell cultures (Example 16); assay type: cell-based; conditions: for IC50: Human alphaherpesvirus 1, Vero, VERO cells
Experimental: 60mm plastic cell culture dishes were seeded with a VERO cell suspension (6 ml of 2 x 10^5 cells/ml) in VERO cell growth medium comprising 5% foetal calf serum, 10% Eagles minimal essential medium, 0.11% sodium bicarbonate,0.25% Crystamycin.
(50,000 units/ml sodium benzyl penicillin B.P. and 50 mg/ml streptomcyin sulphate B.P.). The dishes were gently shaken to ensure the complete dispersion of the cells and then the cultures were incubated at 37°C in an atmosphere of 5% CO2/air overnight to attain confluency. The growth medium was then replaced with 2 ml of virus (Herpes simplex type 1) inoculum in phosphate buffered saline (PBS). The virus concentration was such as to induce the formation of 200-400 plaques/plate. A period of 1 hour was allowed for virus absorption at 37°C in 5% COZair, after which time the plates were drained and overlay medium (8 ml) was added at 42 °C. The overlay medium consisted of 0.6% agarose, 2% foetal calf serum, 10% Eagle's minimal essential medium, 0.11% sodium bicarbonate and 0.25% Crystamycin.
Doubling dilutions in micromolarity of active compound were prepared in the overlay and replicate cultures were fed with the maintenance medium overlay containing a range of concentrations of the compound. Untreated virus control cultures and uninfected cultures were also prepared. The overlay was allowed to solidify at room temperature before the cultures were returned to the incubator at 37°C in 5% CO2/air for 4 days. The cultures were then fixed with 10% formalin in PBS for 30 minutes to 1 hour; the overlay was removed and the cells were stained with 0.05% w/v methyl violet in 20% methanol. The resultant plaques were counted and expressed as a percentage of the plaque count of the untreated virus control cultures. These values were then plotted against the log10 of the compound concentration and the IC50 values representing the amount of the compound required to reduce the plaque count by 50% was read from the resulting dose-response line.

herpes virus = assay: In vivo activity against herpetic encephalitis, intracerebrally infected mice (Example 17); conditions: for Mean reciprocal survival time: 100 mg/kg oral twice daily for 5 days, around 300 x LD50 intracerebrally, 14 days observation
Experimental: Swiss mice weighing 12-15 g were anaesthetised with ether and inoculated intracerebrally with 0.025 ml of a tissue culture preparation of type herpes virus. The mice were examined daily for sign of herpes encephalitis i.e. cerebral irritation leading to paralysis, coma and death. […] The viscera of the mice were examined for signs of infection with bacteria or other agents and if no abnormalities were found the brains were removed asceptically and ground to a smooth paste. The homogenate was resuspended in 4 ml of tissue culture maintenance medium to each brain, and mixed with glycerol in the ratio 2:1. Mouse brains weigh approximately 400 mg and the preparation thus represented a dilution of 10^-1.
The stocks of virus thus prepared were titrated in mice to determine the LD50 titre by inoculating mice intracerebrally with 10-fold dilutions of the stock preparation of virus and subsquently examined twice daily for signs of infection. The LD50 titre was calculated by the Karber method.
Groups of 5 mice were infected intracerebrally with stock virus diluted to give a dose of around 300 x LD50. The compound under test was administered twice daily as a suspension by the oral route at a dose of 100 mg/kg. The animals were examined twice daily and survival times were recorded to the nearst half-day. Dosing was carried out for 5 days and the total period of observation was 14 days. Survival times were converted to recipocals and the mean survival time was determined for each group L. Bauer, D. J., Brit. J. Exp. Path., 1960, 41, 130).

[2] = 50 mg/kg/day intraperitoneal, Day 2, 10 in group
[3] = 50 mg/kg/day intraperitoneal, Day 3, 10 in group
[4] = 50 mg/kg/day intraperitoneal, Day 4, 10 in group
[5] = 50 mg/kg/day intraperitoneal, Day 5, 10 in group
[6] = 50 mg/kg/day intraperitoneal, Day 6, 10 in group
[7] = 50 mg/kg/day intraperitoneal, Day 7, 10 in group
[8] = 100 mg/kg/day intraperitoneal, Day 2, 10 in group
[9] = 100 mg/kg/day intraperitoneal, Day 3, 10 in group
[10] = 100 mg/kg/day intraperitoneal, Day 4, 10 in group
[11] = 100 mg/kg/day intraperitoneal, Day 5, 10 in group
[12] = 100 mg/kg/day intraperitoneal, Day 6, 10 in group
[13] = 100 mg/kg/day intraperitoneal, Day 7, 10 in group
[14] = Experiment 1, plaque count reduced by 50%
[15] = Experiment 2, plaque count reduced by 50%
[16] = Experiment 3, plaque count reduced by 50%

`Nc1nc2c(ncn2COC(CO)CO)c(=O)[nH]1` [Example 759U, 9-[(2-hydroxy-1-hydroxymethylethoxy)methyl]guanine] gave a Cumulative mortality ([1]; 2 mg/kg/day intraperitoneal, Day 2, 10 in group) of 0, a Cumulative mortality ([1]; 2 mg/kg/day intraperitoneal, Day 3, 10 in group) of 0 and a Cumulative mortality ([1]; 2 mg/kg/day intraperitoneal, Day 4, 10 in group) of 0. The Cumulative mortality ([1]; 2 mg/kg/day intraperitoneal, Day 5, 10 in group) was 0, the Cumulative mortality ([1]; 2 mg/kg/day intraperitoneal, Day 6, 10 in group) was 0 and the Cumulative mortality ([1]; 2 mg/kg/day intraperitoneal, Day 7, 10 in group) was 0. The “control of virus-induced mortality” value ([1]; 2 mg/kg/day intraperitoneally) was “complete control”, the Cumulative mortality ([1]; 3 mg/kg/day oral (drinking water), Day 2, 10 in group) was 0 and the Cumulative mortality ([1]; 3 mg/kg/day oral (drinking water), Day 3, 10 in group) was 1. It also gave a Cumulative mortality ([1]; 3 mg/kg/day oral (drinking water), Day 4, 10 in group) of 1, a Cumulative mortality ([1]; 3 mg/kg/day oral (drinking water), Day 5, 10 in group) of 1 and a Cumulative mortality ([1]; 3 mg/kg/day oral (drinking water), Day 6, 10 in group) of 1. It also gave a Cumulative mortality ([1]; 3 mg/kg/day oral (drinking water), Day 7, 10 in group) of 1, a Cumulative mortality ([1]; 4 mg/kg/day intraperitoneal, Day 2, 10 in group) of 0 and a Cumulative mortality ([1]; 4 mg/kg/day intraperitoneal, Day 3, 10 in group) of 0. For the same molecule, the Cumulative mortality ([1]; 4 mg/kg/day intraperitoneal, Day 4, 10 in group) was 0, the Cumulative mortality ([1]; 4 mg/kg/day intraperitoneal, Day 5, 10 in group) was 0 and the Cumulative mortality ([1]; 4 mg/kg/day intraperitoneal, Day 6, 10 in group) was 0. It also gave a Cumulative mortality ([1]; 4 mg/kg/day intraperitoneal, Day 7, 10 in group) of 0, a Cumulative mortality ([1]; 13 mg/kg/day oral (drinking water), Day 2, 10 in group) of 0 and a Cumulative mortality ([1]; 13 mg/kg/day oral (drinking water), Day 3, 10 in group) of 0. For the same molecule, the Cumulative mortality ([1]; 13 mg/kg/day oral (drinking water), Day 4, 10 in group) was 0, the Cumulative mortality ([1]; 13 mg/kg/day oral (drinking water), Day 5, 10 in group) was 0 and the Cumulative mortality ([1]; 13 mg/kg/day oral (drinking water), Day 6, 10 in group) was 0. The Cumulative mortality ([1]; 13 mg/kg/day oral (drinking water), Day 7, 10 in group) was 0, the Cumulative mortality ([1]; 20 mg/kg/day intraperitoneal, Day 2, 10 in group) was 0 and the Cumulative mortality ([1]; 20 mg/kg/day intraperitoneal, Day 3, 10 in group) was 0. For the same molecule, the Cumulative mortality ([1]; 20 mg/kg/day intraperitoneal, Day 4, 10 in group) was 0, the Cumulative mortality ([1]; 20 mg/kg/day intraperitoneal, Day 5, 10 in group) was 0 and the Cumulative mortality ([1]; 20 mg/kg/day intraperitoneal, Day 6, 10 in group) was 0. The Cumulative mortality ([1]; 20 mg/kg/day intraperitoneal, Day 7, 10 in group) was 0, the Cumulative mortality ([1]; 39 mg/kg/day oral (drinking water), Day 2, 10 in group) was 0 and the Cumulative mortality ([1]; 39 mg/kg/day oral (drinking water), Day 3, 10 in group) was 0. The Cumulative mortality ([1]; 39 mg/kg/day oral (drinking water), Day 4, 10 in group) was 0, the Cumulative mortality ([1]; 39 mg/kg/day oral (drinking water), Day 5, 10 in group) was 0 and the Cumulative mortality ([1]; 39 mg/kg/day oral (drinking water), Day 6, 10 in group) was 0. The Cumulative mortality ([1]; 39 mg/kg/day oral (drinking water), Day 7, 10 in group) was 0, the Cumulative mortality [1, 2] was 0 and the Cumulative mortality [1, 3] was 0. For the same molecule, the Cumulative mortality [1, 4] was 0, the Cumulative mortality [1, 5] was 0 and the Cumulative mortality [1, 6] was 0. The Cumulative mortality [1, 7] was 0, the Cumulative mortality [1, 8] was 0 and the Cumulative mortality [1, 9] was 0. The Cumulative mortality [1, 10] was 0, the Cumulative mortality [1, 11] was 0 and the Cumulative mortality [1, 12] was 0. The Cumulative mortality [1, 13] was 1*, the “efficacy against EHV-1” value ([1]; orally at 3 mg/kg/day) was “only limited mortality” and the “efficacy against EHV-1” value ([1]; orally at 13 mg/kg/day) was “completely effective”. The “activity in vitro against Herpes simplex type I compared with acyclovir” value (Herpes simplex type 1) was “greater activity”, the IC50 (Herpes simplex type 1; [14]) was 90 nM and the IC50 (Herpes simplex type 1; [15]) was 50 nM. The IC50 (Herpes simplex type 1; [16]) was 36 nM, the IC50 (Herpes simplex type 1; Mean of Experiments 1-3) was 59 nM and the “Mean reciprocal survival time” value (herpes virus) was 0.15. The “activity given orally to intracerebrally infected mice compared with acyclovir” value (herpes virus; same conditions) was “much greater than acyclovir”.

For `Nc1nc2c(ncn2COCCO)c(=O)[nH]1` [acyclovir, 9-(2-hydroxyethoxymethyl) guanine, reference compound], the Cumulative mortality [1, 2] was 0, the Cumulative mortality [1, 3] was 1 and the Cumulative mortality [1, 4] was 2. It also gave a Cumulative mortality [1, 5] of 5, a Cumulative mortality [1, 6] of 6 and a Cumulative mortality [1, 7] of 6. The Cumulative mortality [1, 8] was 0, the Cumulative mortality [1, 9] was 0 and the Cumulative mortality [1, 10] was 1*. The Cumulative mortality [1, 11] was 2*, the Cumulative mortality [1, 12] was 2* and the Cumulative mortality [1, 13] was 3*. For the same molecule, the Cumulative mortality ([1]; 100 mg/kg/day oral (drinking water 2 mg/ml), Day 2, 12 in group) was 0, the Cumulative mortality ([1]; 100 mg/kg/day oral (drinking water 2 mg/ml), Day 3, 12 in group) was 2 and the Cumulative mortality ([1]; 100 mg/kg/day oral (drinking water 2 mg/ml), Day 4, 12 in group) was 5. For the same molecule, the Cumulative mortality ([1]; 100 mg/kg/day oral (drinking water 2 mg/ml), Day 5, 12 in group) was 7, the Cumulative mortality ([1]; 100 mg/kg/day oral (drinking water 2 mg/ml), Day 6, 12 in group) was 8 and the “efficacy against EHV-1” value ([1]; orally at 100 mg/kg/day for 5 days) was “poor efficacy”. It also gave an IC50 (Herpes simplex type 1; [14]) of 170 nM, an IC50 (Herpes simplex type 1; [15]) of 75 nM and an IC50 (Herpes simplex type 1; [16]) of 110 nM. The IC50 (Herpes simplex type 1; Mean of Experiments 1-3) was 118 nM and the “Mean reciprocal survival time” value (herpes virus) was 0.26.
